The term inhibition denotes the drop in the measured response relative to a control, in per cent. Broadly, the IC50 is the midpoint of a concentration-inhibition curve. High values mean weaker potency, low ones greater potency.

Assay [1] deals with T1, HIV-1 RT wild type (WT) enzyme (Human immunodeficiency virus type 1 group M subtype B, UniProt P03367).
T1 construct: Reverse transcriptase enzyme from the LAV strain of Human Immunodeficiency Virus (HIV-1) (1) was isolated from the bacterial strain JM109; made in house; host or cells: E. coli JM109 (clone pBRTprt1+ in vector pIBI21, lac promoter)
As to the kind of experiment: Reverse Transcriptase (RT) Assay, wild type enzyme (RNA-dependent DNA polymerase activity). As to conditions: 1 µM compound, read-out: Reverse Transciptase Assay % inhibition (1 µM) WT. The class given is biochemical, Human Immunodeficiency Virus (HIV-1). From the text:
Utilizing the Reverse Transcriptase (RT) Assay described below, compounds can be tested for their ability to inhibit the RNA-dependent DNA polymerase activity of HIV-1 RT. Certain specific compounds described in the Examples which appear below, were so tested.
(§1) Among the enzymes for which Human Immunodeficiency Virus (HIV-1) encodes is a reverse transcriptase (1), so-named because it transcribes a DNA copy from an RNA template. This activity can be quantitatively measured in a cell-free enzyme assay, which has been previously described (2), and is based upon the observation that reverse transcriptase is able to use a synthetic template [poly r(C) primed with oligo d(G)] to transcribe a radio-labelled, acid-precipitable DNA strand utilizing ^3H-dGTP as a substrate. The assay described below utilizes the wild type (WT) enzyme, which is the predominant form of the enzyme observed in patients infected with HIV-1. Utilization of mutant RT eraymes (Y181C and Y181L, prepared by site-directed mutagenesis in which the tyrosine residue at codon 181 has been replaced by a cysteine or a leucine residue, respectively) and analogous assay conditions allows compounds to be evaluated for their effectiveness at inhibiting these mutant enzymes.
Reverse transcriptase enzyme from the LAV strain of Human Immunodeficiency Virus (HIV-1) (1) was isolated from the bacterial strain JM109 (3) expressing the DNA clone pBRTprt1+ (2) which is under the control of the lac promotor in the expression vector pIBI21 (4). An overnight culture grown in 2XYT medium (37°C, 225 rpm) (5) supplemented with 100 µg/mL ampicillin for positive selection is inoculated at a 1:40 dilution into M9 medium supplemented with 10µg/mL thiamine, 0.5% casamino acids, and 50 µg/mL ampicillin (5). The culture is incubated (37°C, 225 rpm) until it reaches an OD540 of 0.3-0.4. At that time the repressor inhibitor IPTG (isopropyl β-D-thiogalactopyranoside) is added to 0.5mM, and the mixture is incubated for 2 additional hours. Bacteria are pelleted, resuspended in a 50mM Tris, 0.6mM EDTA, 0.375M NaCl buffer and digested by the addition of lysozyme (1mg/mL) for 30 minutes on ice. The cells are lysed by the addition of 0.2% NP-40 and brought to 1M NaCl.
After removal of the insoluble debris by centrifugation, the protein is precipitated by the addition of 3 volumes of saturated aqueous ammonium sulfate. The enzyme is pelleted, resuspended in RT buffer (50mM Tris pH 7.5, 1mM EDTA, 5mM DTT, 0.1% NP-40, 0.1M NaCI, and 50% glycerol), and stored at -70°C for further use.
The 2X concentrated stock reaction mixture is aliquoted and stored at -20°C. The mixture is stable and thawed for use in each assay. This enzyme assay has been adapted to a 96 well microtiter plate system, and has been previously described (6). Tris buffer (50 mM, pH 7.4), vehicle (solvent diluted to match the compound dilution), or compounds in vehicle are dispensed into 96-well microtiter plates (10µL/well; 3 wells/ compound). The HIV-1 RT enzyme is thawed, diluted in 50mM Tris pH 7.4 so that fifteen µL of diluted enzyme contain 0.001 Unit (one unit is that amount of enzyme to transform 1 micromole of substrate per minute at 25°C), and fifteen µL are dispensed per well. Twenty µL of 0.12-0.5M EDTA are added to the first three wells of the microtiter plate. EDTA chelates the Mg^++ present and prevents reverse transcription. This group serves as background polymerization which is subtracted from all other groups. Twenty-five ul of the 2X reaction mixture are added to all wells and the assay is allowed to incubate at room temperature for 60 minutes. The assay is terminated by precipitating the DNA in each well with 50µL of 10% trichloracetic acid (TCA) (10% w/v) in sodium pyrophosphate (1% w/v). The microtiter plate is incubated for 15 minutes at 4°C and the precipitate is fixed onto #30 glass fiber paper (Schleicher & Schuell) using a Skatron semi-automatic harvester. […]

The target in a further assay is T2, HIV-1 RT Y181C (Human immunodeficiency virus type 1 group M subtype B, UniProt P03367, Y780C).
T2 construct: Utilization of mutant RT eraymes (Y181C and Y181L, prepared by site-directed mutagenesis); made in house
As to the kind of experiment: Reverse Transcriptase (RT) Assay, Y181C mutant enzyme. The class given is biochemical, Human Immunodeficiency Virus (HIV-1). As to conditions: 1 µM compound, read-out: Reverse Transciptase Assay % inhibition (1 µM) Y181C.
Description: as §1
The 2X concentrated stock reaction mixture is aliquoted and stored at -20°C. The mixture is stable and thawed for use in each assay. This enzyme assay has been adapted to a 96 well microtiter plate system, and has been previously described (6). Tris buffer (50 mM, pH 7.4), vehicle (solvent diluted to match the compound dilution), or compounds in vehicle are dispensed into 96-well microtiter plates (10µL/well; 3 wells/ compound). The HIV-1 RT enzyme is thawed, diluted in 50mM Tris pH 7.4 so that fifteen µL of diluted enzyme contain 0.001 Unit (one unit is that amount of enzyme to transform 1 micromole of substrate per minute at 25°C), and fifteen µL are dispensed per well. Twenty µL of 0.12-0.5M EDTA are added to the first three wells of the microtiter plate. EDTA chelates the Mg^++ present and prevents reverse transcription. This group serves as background polymerization which is subtracted from all other groups. Twenty-five ul of the 2X reaction mixture are added to all wells and the assay is allowed to incubate at room temperature for 60 minutes. The assay is terminated by precipitating the DNA in each well with 50µL of 10% trichloracetic acid (TCA) (10% w/v) in sodium pyrophosphate (1% w/v). The microtiter plate is incubated for 15 minutes at 4°C and the precipitate is fixed onto #30 glass fiber paper (Schleicher & Schuell) using a Skatron semi-automatic harvester. The filters are then washed with additional TCA (5%) containing sodium pyrophosphate (1%), rinsed with aqueous ethanol (70%), dried, and transferred to scintillation vials (6). Each vial receives 2 mL of scintillation cocktail and is counted in a Beckman beta counter. The calculation for percent inhibition is as follows: % inhibition =(CPM Mean Test Value - CPM Mean Control Value X100)/(CPM Mean Control Value) [formula]

Another assay has as its target T3, HIV-1 RT Y188L (Human immunodeficiency virus type 1 group M subtype B, UniProt P03367, Y787L).
T3 construct: effective against the reverse transcriptase of many mutant viruses; made in house
As to the kind of experiment: Reverse Transcriptase (RT) Assay, Y188L mutant enzyme. The class given is biochemical, Human Immunodeficiency Virus (HIV-1). As to conditions: 1 µM compound.

The subject of assay [2] is HTLV-IIIB strain of HIV-1. As to the kind of experiment: Syncytia (human T-cell culture) assay. The format is cell-based. As to conditions: Human immunodeficiency virus 1, IIIB, 96 h; c8166 cells; read four days after virus challenge. As for the experimental part:
In order to confirm that compounds which are active in the RT Assay also have the ability to inhibit HIV replication in a living system, compounds according to the invention were also tested in the human T-Cell Culture (Syncytia) Assay described below.
Formation of syncytia is a feature of in vitro cultures of CD4+ T-cells infected with HIV-1. In this assay, T-cells are treated with a putative replication inhibiting compound and then infected with HIV-1. After incubation, the culture is checked for the formation of syncytia. The absence or reduction in the number of syncytia is used as a measure of the test compound's ability to inhibit HIV replication.
The target cells, designated c8166, are a subclone of human lymphoma cells of T-cell origin and are established at an initial density of 5x10^4 per 100 ul in RPMI 1640 (+ 10% fetal bovine serum) culture medium in 96 well flat bottom plates. A selected amount of test compound, dissolved in DMSO, is included. After 24 hours, 50-100 TCID50's (the dose that results in induced effect in 50% of test cultures) of the HTLV-IIIB strain of HIV-1 (2) are inoculated into each culture. Control cultures receive compound or virus only. Four days after virus challenge, cultures are visually examined for the frequency and distribution of virus-induced giant cell syncytia. The percent inhibition by the test compound is determined by comparison with control values. Confirmation of the presence or absence of virus replication is accomplished by harvesting the cell free culture fluids from all experimental groups to determine the presence or absence of infectious progeny through the induction of syncytia formation in secondary human T-cell cultures after 3 days.

For the compound `CCN1c2ncccc2C(=O)N(C)c2ccc(-c3ccc[nH]3)nc21` [Example 13, 5,11-Dihydro-11-ethyl-5-methyl-2-(2-pyrrolyl)-6H-dipyrido[3,2-b:2',3'-e][1,4]diazepin-6-one], the inhibition at 1 µM in assay [1] is 88%; at HIV-1 RT Y181C it was 80%. For the same compound, on HIV-1 RT Y188L, the “Reverse Transciptase Assay % inhibition (1 µM) Y188L” value was 17%. In addition, in assay [2], the IC50 is 0.16 µM.

(Values after patent publication EP0745083B1, “2-HETEROARYL-5,11-DIHYDRO-6H-DIPYRIDO [3,2-b:2',3'-e][1,4]DIAZEPINES AND THEIR USE IN THE PREVENTION OR TREATMENT OF HIV INFECTION” (BOEHRINGER INGELHEIM PHARMACEUTICALS INC., priority 1994, dated 1995).)
